The text below walks through data of patent US20230382869A1, “Phenyl-3,4-dihydroisoquinolin-2(1h)-yl-ethan-1-one derivatives as dopamine d1receptor positive allosteric modulators” (Eli Lilly and Company, priority 2020, published 2023).

The assay deals with human D1 receptor (Homo sapiens (Human), UniProt P21728). Kind of assay: Human D1 Receptor PAM Assay (cAMP HTRF, potentiator mode). Type of assay: cell-based. Particulars: for EC50: HEK293 cells expressing human D1, with EC20 dopamine (12 nM final), cAMP, read-out: Abs EC50; for % Top (% Potentiation): fitted top, 0% = EC20 dopamine alone, 100% = 5 μM dopamine. The text has this:
The PAM activity of the compounds of the present invention may be measured essentially as described in Svensson et al., An Allosteric Potentiator of the Dopamine D1 Receptor Increases Locomotor Activity in Human D1 Knock-in Mices without Casusing Stereotypy or Tachyphylaxis. J. Pharmacol. Exp. Ther. (2017) 360:117-128.
More specifically, HEK293 cells that stably express the human D1 receptor (Accession number NM_000794) are generated by gene transduction using the pBABE-bleo retroviral vector and selected with Zeocin™ (InvivoGen). At approximately 80% confluency, the cells are harvested using TrypLE™ Express (Gibco), suspended in FBS plus 8% DMSO, and stored in liquid nitrogen. On the day of the assay, cells are thawed and resuspended in STIM buffer (Hanks Balanced Salt Solution supplemented with 0.1% BSA, 20 mM HEPES, 500 μM IBMX, and 100 μM ascorbic acid).
Test compound is serially diluted (1:2) with DMSO into assay plates (ProxiPlate-384 Plus, PerkinElmer) using acoustic dispensing (Labcyte) to provide 20 concentrations for full response curves. Test compound (80 nL) is added to 5 μL STIM buffer containing 2000 cells, and 5 μL of a 2×concentration dopamine solution in STIM buffer that will generate an EC20 level response (24 nM in stock solution, or 12 nM final) and a final DMSO concentration in the well of 0.8%. Plates are incubated at room temperature for a total reaction time of 60 min.
cAMP production is quantified using HTRF® detection (Cisbio) according to the manufacturer's instructions. Generally, lysis buffer containing anti-cAMP cryptate (5 μL) and D2-conjugate (from HTRF® kit)(5 μL) is added to the wells, plates are incubated for an additional 60-90 min, and the time-resolved fluorescence is detected using an EnVision™ plate reader (PerkinElmer). Fluorescence data is converted to cAMP concentrations using a cAMP standard curve and analyzing using a 4-parameter non-linear logistic equation (Genedata Screener, version 13.0.5-standard). For potentiator mode concentration-response curves, results are expressed as percent of the window between a response at EC20 concentration of dopamine alone (normalized to 0%) and the maximum response to dopamine (defined by response to 5 μM dopamine, final concentration, normalized as 100%). Absolute EC50 values are calculated based on the maximum and minimum responses of the control agonist (dopamine). The % Potentiation (% Top) is determined from the fitted top of the concentration response curve.
(In general: TR-FRET usually uses a lanthanide donor and a delayed reading to cut background.)

Chain of human D1 receptor (P21728 whole entry): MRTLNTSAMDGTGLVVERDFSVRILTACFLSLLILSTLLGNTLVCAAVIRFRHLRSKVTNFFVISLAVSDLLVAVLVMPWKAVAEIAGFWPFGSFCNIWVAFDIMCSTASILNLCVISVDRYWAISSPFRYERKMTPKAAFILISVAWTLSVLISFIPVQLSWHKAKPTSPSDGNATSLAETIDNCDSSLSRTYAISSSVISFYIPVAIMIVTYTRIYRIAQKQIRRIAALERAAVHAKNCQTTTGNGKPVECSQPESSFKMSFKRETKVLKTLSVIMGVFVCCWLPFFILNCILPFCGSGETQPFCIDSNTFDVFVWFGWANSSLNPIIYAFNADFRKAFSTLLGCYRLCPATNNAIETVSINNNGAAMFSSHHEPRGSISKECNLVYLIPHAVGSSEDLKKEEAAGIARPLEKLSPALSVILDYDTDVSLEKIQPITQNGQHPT

The term EC50 denotes the midpoint of the concentration-response curve. For `C[C@H]1c2cccc([C@@H]3C[C@@H]3C(C)(C)O)c2C[C@H](CO)N1C(=O)Cc1c(Cl)cccc1Cl` (relative stereo) [Example 4, 2-(2,6-Dichlorophenyl)-1-[(1S,3R)-3-(hydroxymethyl)-5-[cis-2-(1-hydroxy-1-methyl-ethyl)cyclopropyl]-1-methyl-3,4-dihydro-1H-isoquinolin-2-yl]ethenone], the EC50 was 86.7 nM and the “% Top (% Potentiation)” value turned out to be 93.2%.
For the molecule `C[C@H]1c2ccc(F)c([C@@H]3C[C@H]3C(C)(C)O)c2C[C@H](CO)N1C(=O)Cc1c(Cl)cccc1Cl` (relative stereo) [Example 11, 2-(2,6-dichlorophenyl)-1-[(1S,3R)-6-fluoro-3-(hydroxymethyl)-5-[trans-(1-hydroxy-1-methyl-ethyl)cyclopropyl]-1-methyl-3,4-dihydro-1H-isoquinolin-2-yl]ethenone], the EC50 came out at 5.19 nM and the “% Top (% Potentiation)” value is 92.7%.
For `C[C@H]1c2cccc([C@@H]3C[C@H]3C(C)(C)O)c2C[C@H](CO)N1C(=O)Cc1c(Cl)cccc1Cl` (relative stereo) [Example 2, 2-(2,6-Dichlorophenyl)-1-[(1S,3R)-3-(hydroxymethyl)-5-[trans-2-(1-hydroxy-1-methyl-ethyl)cyclopropyl]-1-methyl-3,4-dihydro-1H-isoquinolin-2-yl]ethenone] the same measures were 8.28 nM and 96.4%.
On to `C[C@H]1c2cccc([C@@H]3C[C@H]3C(C)(C)O)c2C[C@H](CO)N1C(=O)Cc1c(Cl)cccc1Cl` (relative stereo) [Example 1, 2-(2,6-Dichlorophenyl)-1-[(1S,3R)-3-(hydroxymethyl)-5-[trans-2-(1-hydroxy-1-methyl-ethyl)cyclopropyl]-1-methyl-3,4-dihydro-1H-isoquinolin-2-yl]ethenone], for which the EC50 was 12.1 nM and the “% Top (% Potentiation)” value came to 94.2%.
The like results for “2-(2,6-Dichlorophenyl)-1-[(1S,3R)-5-[4,4-difluoro-3-hydroxy-3-methyl-butyl]-3-(hydroxymethyl)-1-methyl-3,4-dihydro-1H-isoquinolin-2-yl]ethenone [Example 6]” were, in that order, 12.7 nM and 97.0%.
The like results for `C[C@@H]1c2ccc(F)c([C@@H]3C[C@H]3C(C)(C)O)c2C[C@H](CO)N1C(=O)Cc1c(F)cccc1Cl` (relative stereo) [Example 8, 2-(2-chloro-6-fluoro-phenyl)-1-[(1R,3R)-6-fluoro-3-(hydroxymethyl)-5-[trans-2-(1-hydroxy-1-methyl-ethyl)cyclopropyl]-1-methyl-3,4-dihydro-1H-isoquinolin-2-yl]ethenone] were, in that order, 33.6 nM and 78.9%.
For the molecule `C[C@H]1c2cccc([C@@H]3C[C@@H]3C(C)(C)O)c2C[C@H](CO)N1C(=O)Cc1c(Cl)cccc1Cl` (relative stereo) [Example 3, 2-(2,6-Dichlorophenyl)-1-[(1S,3R)-3-(hydroxymethyl)-5-[cis-2-(1-hydroxy-1-methyl-ethyl)cyclopropyl]-1-methyl-3,4-dihydro-1H-isoquinolin-2-yl]ethenone], the half-maximal effective concentration (EC50) amounted to 11.2 nM and the “% Top (% Potentiation)” value is listed as 91.9%.
For “2-(2,6-Dichlorophenyl)-1-[(1S,3R)-5-[4,4-difluoro-3-hydroxy-3-methyl-butyl]-3-(hydroxymethyl)-1-methyl-3,4-dihydro-1H-isoquinolin-2-yl]ethenone [Example 5]” the same measures were 7.96 nM and 101%.
For `C[C@H]1c2ccc(F)c([C@@H]3C[C@H]3C(C)(C)O)c2C[C@H](CO)N1C(=O)Cc1c(Cl)cccc1Cl` (relative stereo) [Example 10, 2-(2,6-dichlorophenyl)-1-[(1S,3R)-6-fluoro-3-(hydroxymethyl)-5-[trans-(1-hydroxy-1-methyl-ethyl)cyclopropyl]-1-methyl-3,4-dihydro-1H-isoquinolin-2-yl]ethenone] the same measures were 12.3 nM and 86.9%.
For `C[C@@H]1c2ccc(F)c([C@@H]3C[C@H]3C(C)(C)O)c2C[C@H](CO)N1C(=O)Cc1c(F)cccc1Cl` (relative stereo) [Example 9, 2-(2-chloro-6-fluoro-phenyl)-1-[(1R,3R)-6-fluoro-3-(hydroxymethyl)-5-[trans-2-(1-hydroxy-1-methyl-ethyl)cyclopropyl]-1-methyl-3,4-dihydro-1H-isoquinolin-2-yl]ethenone] the same measures were 13.2 nM and 82.0%.
